Among the data in ChEMBL document CHEMBL3826963, “Pharmacological protection of mitochondrial function mitigates acute limb ischemia/reperfusion injury” (Bioorg Med Chem Lett, 2016) are Activity and inhibition in vivo values, retold here.

The structures appear in SMILES notation. Activity calls are given as the source filed them. The calls are words filed in the database; no cut-off is given here. Where a SMILES comes first, the peptide text is derived from it.

Usually inhibition in vivo stands for the share of the control response that was lost under treatment.

In test [1] the test system is Rattus norvegicus. Put plainly: Anti-inflammatory activity in Wistar rat model of tourniquet-induced limb ischemia/reperfusion injury assessed as serum TNF-alpha level at 20 mg/kg, ip dosed 15 mins before and after 3 hrs of ischemia followed by 20 mg/kg, ip compound treatment for 1 hr before and after 4 hrs of reperfusion by ELISA (reference value: 185.1 +/- 23.5 pg/ml). The format is functional.

A further test deals with Mus musculus. Put plainly: Anti-inflammatory activity in ICR mouse assessed as inhibition of xylene-induced ear edema at 1 umol/kg, po pretreated for 30 mins followed by xylene administration measured after 2 hrs relative to control. The class given is functional.
The subject of test [2] is Rattus norvegicus. Nature of the test: Protection against Wistar rat model of tourniquet-induced limb ischemia/reperfusion injury-induced oxidative stress assessed as skeletal muscle CAT activity per mg protein at 20 mg/kg, ip dosed 15 mins before and after 3 hrs of ischemia followed by 20 mg/kg, ip compound treatment for 1 hr before and after 4 hrs of reperfusion (reference value: 25.64 +/- 5.29 U). The class given is functional.

For test [3], the system named is Rattus norvegicus. Put plainly: Protection against Wistar rat model of tourniquet-induced limb ischemia/reperfusion injury-induced oxidative stress assessed as skeletal muscle SOD activity per mg protein at 20 mg/kg, ip dosed 15 mins before and after 3 hrs of ischemia followed by 20 mg/kg, ip compound treatment for 1 hr before and after 4 hrs of reperfusion (reference value: 0.41 +/- 0.09 U). The format is functional.

The test system of test [4] is Rattus norvegicus. Nature of the test: Protection against Wistar rat model of tourniquet-induced limb ischemia/reperfusion injury-induced oxidative stress assessed as skeletal muscle GSH level at 20 mg/kg, ip dosed 15 mins before and after 3 hrs of ischemia followed by 20 mg/kg, ip compound treatment for 1 hr before and after 4 hrs of reperfusion (reference value: 0.82 +/- 0.19 umol/g). The format is functional.

Test [5] relates to Rattus norvegicus. Nature of the test: Anti-inflammatory activity in Wistar rat model of tourniquet-induced limb ischemia/reperfusion injury assessed as serum IL-6 level at 20 mg/kg, ip dosed 15 mins before and after 3 hrs of ischemia followed by 20 mg/kg, ip compound treatment for 1 hr before and after 4 hrs of reperfusion by ELISA (reference value: 580.3 +/- 95.2 pg/ml). The class given is functional. In general terms: ELISA stands for enzyme-linked immunosorbent assay.

Test [6] deals with PC-12. Nature of the test: Antioxidant activity in rat PC12 cells assessed as scavenging of H2O2/Fe2+ ion-induced hydroxyl radical by measuring increase in cell survival at 12.5 to 200 uM preincubated for 1 hr followed by H2O2/Fe2+ ion addition measured after 1 hr by MTT assay. The class given is functional, cell-based. In general terms: Tetrazolium dyes change colour on reduction, which living cells bring about.

The subject of test [7] is Rattus norvegicus. Put plainly: Protection against Wistar rat model of tourniquet-induced limb ischemia/reperfusion injury-induced oxidative stress assessed as skeletal muscle MDA level at 20 mg/kg, ip dosed 15 mins before and after 3 hrs of ischemia followed by 20 mg/kg, ip compound treatment for 1 hr before and after 4 hrs of reperfusion (reference value: 45.78 +/- 4.33 nmol/g). The format is functional.

Test [8] concerns PC-12. Put plainly: Antioxidant activity in rat PC12 cells assessed as scavenging of SNAP-induced NO radical by measuring increase in cell survival at 12.5 to 200 uM preincubated for 1 hr followed by SNAP addition measured after 2 hrs by MTT assay. The format is functional, cell-based.
The test system of test [9] is Rattus norvegicus. Put plainly: Antithrombotic activity in Wistar rat model of thread-induced arterial thrombosis assessed as thrombus weight at 5 umol/kg measured after 2 to 3 hrs (reference value: 42.1 +/- 3.2 mg).
The test system of test [10] is PC-12. Nature of the test: Antioxidant activity in rat PC12 cells assessed as scavenging of hypoxanthine/xanthine oxidase-induced O2 radical by measuring increase in cell survival at 12.5 to 200 uM preincubated for 1 hr followed by hypoxanthine/xanthine oxidase addition by MTT assay. The class given is functional, cell-based.

As to `COC(=O)COc1ccc(/C=C/C(=O)CC(=O)/C=C/c2ccc(OC)c(OC)c2)cc1OC`, the Activity with Rattus norvegicus [1] amounted to 160.7 pg/mL; in the test on Rattus norvegicus [2] it was 42.4 U/mg; with Rattus norvegicus [3], 0.58 U/mg; in the test with Rattus norvegicus [4], 1.55 µmol/g; with Rattus norvegicus [5] it was 472.5 pg/mL; in the test with Rattus norvegicus [7], 30.12 nmol/g. Further, the Activity in the test on Rattus norvegicus [9] is given as 40.1 mg. In addition, the inhibition in vivo at 1 µmol/kg in the test on Mus musculus was 25.1%. In the test on PC-12 [6], the outcome was Active. For the same compound, the outcome in the test with PC-12 [8] and in the test on PC-12 [10] was inactive.
On to `COc1cc(/C=C/C(=O)CC(=O)/C=C/c2ccc(OCC(=O)N[C@@H](CCCCN)C(=O)O)c(OC)c2)ccc1O`, for which the inhibition in vivo at 1 µmol/kg in the test with Mus musculus amounted to 41.1%. Besides, the Activity in the test with Rattus norvegicus [9] was 34.5 mg.
The like results for `COc1ccc(/C=C/C(=O)CC(=O)/C=C/c2ccc(OCC(=O)N[C@@H](CCCCN)C(=O)O)c(OC)c2)cc1OC` were, in that order, 39.3% and 38.3 mg.
For the compound `COC(=O)COc1ccc(/C=C/C(=O)CC(=O)/C=C/c2ccc(O)c(OC)c2)cc1OC`, the Activity came to 155.4 pg/mL in the test on Rattus norvegicus [1]; 44.6 U/mg in the test on Rattus norvegicus [2]; 0.64 U/mg with Rattus norvegicus [3]; 1.41 µmol/g with Rattus norvegicus [4]; 450.8 pg/mL in the test with Rattus norvegicus [5]; 32.47 nmol/g in the test on Rattus norvegicus [7]. Also, the Activity with Rattus norvegicus [9] was 39.7 mg. In addition, in the test on Mus musculus, the inhibition in vivo at 1 µmol/kg is 23.3%. In the test with PC-12 [6], the result was Active. Besides, the result in the test with PC-12 [8] and with PC-12 [10] was inactive.
In the case of `C[C@H](NC(=O)[C@@H]1CCCN1)C(=O)N[C@@H](CCCCN)C(=O)O` (H-Pro-Ala-Lys-OH), the Activity in the test on Rattus norvegicus [9] came out at 32.8 mg.
On to `CC(=O)Oc1ccccc1C(=O)O` [ASPIRIN], for which the inhibition in vivo at 1 µmol/kg in the test with Mus musculus turned out to be 50.3%. In the test with Rattus norvegicus [9], the Activity is recorded as 28.5 mg.
